Drawing on PubChem BioAssay (NCI), this text covers GI50 and TGI for 7 molecules.

“And” between values parts separate entries of the source, which are not always exact repeats. Equal values may be shown once.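 Where inhibition never reached the appropriate level, the endpoint shown equals the highest concentration tested. Otherwise, values were interpolated linearly from a five-concentration, 48-hour dose response in 96-well plates. Abbreviation: GI50, concentration required for 50% inhibition of growth. The concentration for full growth arrest is given as TGI.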

Test systems include HS 578T breast; NCI/ADR-RES ovarian; SNB-75 CNS; BT-549 breast; COLO 205 colon; NCI-H460 lung; NCI-H226 lung; SR leukemia; OVCAR-5 ovarian; MALME-3M melanoma.
Holding throughout (test): NCI-60 cell line screen, 48 h

In the case of `CCOC(=O)Oc1c(OC)cc(C(=O)c2ccc(OC)c(OC(=O)CCl)c2OC)cc1OC`, the GI50 is 0.556 µM in the assay on HS 578T breast; 0.497 µM in the assay with NCI/ADR-RES ovarian; 0.528 µM in the assay on SNB-75 CNS; 0.996 µM in the assay with BT-549 breast; 9.57 µM with COLO 205 colon; 2.09 µM in the assay with NCI-H460 lung. Moreover, the GI50 was 4.38 µM with NCI-H226 lung, 0.459 µM with SR leukemia, 5.88 µM in the assay on OVCAR-5 ovarian and 0.688 µM with MALME-3M melanoma. For the same molecule, the TGI in the assay with HS 578T breast was more than 100 µM; with NCI/ADR-RES ovarian, 3.98 µM; with SNB-75 CNS, more than 100 µM; with BT-549 breast it was 9.5 µM; in the assay on COLO 205 colon, 66.7 µM; in the assay with NCI-H460 lung, 44.9 µM. The TGI in the assay on NCI-H226 lung was 37.9 µM; in the assay with SR leukemia, more than 100 µM; in the assay with OVCAR-5 ovarian, more than 100 µM; in the assay on MALME-3M melanoma, 79.9 µM.
Take `O=C(O)C1CCCN1Cc1c[nH]c2ccccc12` (stereo not drawn): the TGI with HS 578T breast, with NCI/ADR-RES ovarian, in the assay with SNB-75 CNS, in the assay with BT-549 breast, with COLO 205 colon and with NCI-H460 lung was more than 100 µM each time. Also, the TGI in the assay with NCI-H226 lung, with SR leukemia, with OVCAR-5 ovarian and with MALME-3M melanoma was more than 100 µM throughout.
As to `O=C1NC(=O)[C@@H](c2cn3c4c(cccc24)CCC3)[C@@H]1c1c[nH]c2ccccc12`, the GI50 is 0.343 µM and 0.323 µM with HS 578T breast; 0.327 µM and 0.369 µM with NCI/ADR-RES ovarian; 0.348 µM and 0.198 µM in the assay with SNB-75 CNS; 0.522 µM and 1.1 µM with BT-549 breast; 0.273 µM and 0.326 µM in the assay with COLO 205 colon; 0.365 µM and 0.372 µM in the assay with NCI-H460 lung. For the same molecule, the GI50 was > 2.61 µM and 1.48 µM in the assay on NCI-H226 lung; 0.246 µM and 0.377 µM in the assay on SR leukemia; 0.652 µM and 1.1 µM in the assay on OVCAR-5 ovarian; 0.987 µM and 0.434 µM in the assay on MALME-3M melanoma. Also, the TGI in the assay on HS 578T breast was > 10 µM and 20.9 µM; in the assay with NCI/ADR-RES ovarian, > 4.71 µM and 9.55 µM; with BT-549 breast, > 10 µM and 17.7 µM; in the assay on COLO 205 colon, 0.973 µM and 1.14 µM; in the assay on NCI-H460 lung it was > 10 µM and 8.55 µM; in the assay with NCI-H226 lung, > 10 µM and 17.9 µM. In addition, the TGI in the assay on SR leukemia is > 10 µM and 27.6 µM; in the assay with OVCAR-5 ovarian it was > 10 µM and 22.2 µM; in the assay with MALME-3M melanoma, > 10 µM and 26.6 µM.
For `COc1ccc(C(=O)c2cc(OC)c(OC)c(OC)c2)cc1/C=C/C(=O)c1ccc(O)cc1`, the GI50 in the assay with HS 578T breast was 18.3 µM; with NCI/ADR-RES ovarian it was 2.68 µM; in the assay on SNB-75 CNS, 1.62 µM; with BT-549 breast, 2.02 µM; with COLO 205 colon, 15.1 µM; with NCI-H460 lung it was 2.56 µM. Moreover, the GI50 with NCI-H226 lung was 2.5 µM; in the assay on SR leukemia, 0.433 µM; in the assay on OVCAR-5 ovarian, 11.2 µM; in the assay on MALME-3M melanoma, 9.69 µM. Besides, the TGI with HS 578T breast was more than 100 µM; in the assay on NCI/ADR-RES ovarian, 8.09 µM; in the assay on SNB-75 CNS it was 4.77 µM; in the assay with BT-549 breast it was 5.32 µM; in the assay with COLO 205 colon, 36.3 µM; in the assay with NCI-H460 lung it was 7.23 µM. Besides, the TGI was 7.78 µM in the assay with NCI-H226 lung, more than 100 µM in the assay on SR leukemia, 25.1 µM with OVCAR-5 ovarian and 25.1 µM in the assay on MALME-3M melanoma.
For `Cc1cc(S(=O)(=O)Nc2nnc(-c3ccco3)c(-c3ccco3)n2)c(SCc2ccccc2)cc1Cl`, the GI50 in the assay on HS 578T breast is 29.7 µM; with NCI/ADR-RES ovarian it was 39.4 µM; in the assay with SNB-75 CNS it was 32.1 µM; in the assay on BT-549 breast, 25.3 µM; with COLO 205 colon, 26.1 µM; in the assay with NCI-H460 lung, 31.6 µM. For the same molecule, the GI50 in the assay on NCI-H226 lung is 22.4 µM; with SR leukemia it was 19.4 µM; in the assay with OVCAR-5 ovarian, 25.6 µM; in the assay on MALME-3M melanoma, 19.8 µM. The TGI with HS 578T breast is 64.9 µM; in the assay on NCI/ADR-RES ovarian it was more than 100 µM; in the assay with SNB-75 CNS, 56.2 µM; in the assay with BT-549 breast, 50.2 µM; with COLO 205 colon, 56.3 µM; with NCI-H460 lung, 83.5 µM. Also, the TGI amounted to 69.9 µM in the assay with NCI-H226 lung, 40 µM in the assay on SR leukemia, 49.8 µM in the assay on OVCAR-5 ovarian and 43.9 µM in the assay on MALME-3M melanoma.
As to `COc1ccc(-n2c(-c3ccc(NC(=O)CCCl)cc3)nnc2-c2cc(OC)c(OC)c(OC)c2)cc1`, the GI50 with HS 578T breast is 3.89 µM; in the assay with NCI/ADR-RES ovarian, 4.55 µM; in the assay on SNB-75 CNS, 3.46 µM; in the assay on BT-549 breast it was 3.14 µM; in the assay with COLO 205 colon it was 2.02 µM; in the assay on NCI-H460 lung, 2.5 µM. Further, the GI50 is 10.8 µM with NCI-H226 lung, 3.12 µM in the assay with SR leukemia, 6.85 µM in the assay on OVCAR-5 ovarian and 4 µM with MALME-3M melanoma. In addition, the TGI was 12.6 µM in the assay on HS 578T breast; more than 14.3 µM in the assay on NCI/ADR-RES ovarian; more than 14.3 µM with SNB-75 CNS; 13.8 µM in the assay with BT-549 breast; 4.75 µM in the assay with COLO 205 colon; 7.33 µM with NCI-H460 lung. The TGI in the assay with NCI-H226 lung is more than 14.3 µM; with SR leukemia, 12.7 µM; in the assay on OVCAR-5 ovarian, more than 14.3 µM; in the assay with MALME-3M melanoma it was more than 14.3 µM.
As to `CC1/C=C/C=C/CC/C=C/C=C/C=C/C=C/C(OC2OC(C)C(O)C(N)C2O)CC2OC(CC(O)C(O)CCC(O)CC(O)CC(O)CC(=O)OC(C)C(C)C1O)CC(O)C2C(=O)O` (stereo not drawn), the GI50 is 32.5 µg/mL with HS 578T breast; 41 µg/mL in the assay on NCI/ADR-RES ovarian; 58.2 µg/mL in the assay with SNB-75 CNS; 38.8 µg/mL with BT-549 breast; 81.7 µg/mL in the assay on COLO 205 colon; 30.4 µg/mL with NCI-H460 lung. For the same molecule, the results for the GI50 in the assay on NCI-H226 lung, with OVCAR-5 ovarian and with MALME-3M melanoma were 28.7 µg/mL, 49.5 µg/mL and 28.1 µg/mL, respectively. For the same molecule, the TGI is 55.1 µM and 66.9 µg/mL with HS 578T breast; 45.2 µM and 93.8 µg/mL in the assay on NCI/ADR-RES ovarian; 40.6 µM and 150 µg/mL in the assay on SNB-75 CNS; 34.6 µM and 116 µg/mL in the assay with BT-549 breast; 56.8 µM and 150 µg/mL in the assay on COLO 205 colon; 39.7 µM and 87.7 µg/mL in the assay on NCI-H460 lung. Also, the TGI with NCI-H226 lung is 28.3 µM and 53.6 µg/mL; in the assay on SR leukemia, 35.5 µM; in the assay with OVCAR-5 ovarian it was 35.8 µM and 135 µg/mL; in the assay with MALME-3M melanoma it was 33 µM and 51.3 µg/mL.
